From patent publication US20090076105A1, “PREVENTIVE OR THERAPEUTIC AGENT FOR CEREBRAL ISCHEMIC INJURY OR CEREBRAL ISCHEMIA REPERFUSION IN STROKE” (SANWA KAGAKU KENKYUSHO CO., LTD., priority 2006, published 2009)

Experiments:
[1] = as reported in Hatsumei Kyokai Kokai Giho No. 2006-500058; cited from earlier work
[2] = system: mouse models with middle cerebral artery occlusion; test: Mouse models with middle cerebral artery occlusion (MCAO, 2 h) and reperfusion: neurological symptoms, cerebral infarction size and volume; format: in vivo; settings: for Distribution of neurological scores: score 0 (number of mice) / Distribution of neurological scores: score 1 (number of mice) / Distribution of neurological scores: score 2 (number of mice) / Distribution of neurological scores: score 3 (number of mice) / Neurological scores Mean ± SEM: scored 22 hours after reperfusion, n = 9; for Neurological scores Mean ± SEM: score 0-3
Text: Mouse models with acute ischemic stroke, namely, mouse models with middle cerebral artery occlusion were used as evaluation systems. The experiment consists of three experiments, i.e., Experiment 1 to evaluate the therapeutic efficacy of fidarestat (control group and fidarestat administration group), Experiment 2 to evaluate the protective effect of fidarestat (control group and fidarestat administration group), and Experiment 3 to evaluate the role of AR (wild-type mouse group and AR gene-deficient mouse group).
Used mice (C57BL/6J line, 22 to 28 g of body weight) were subjected to right middle cerebral artery occlusion (MCAO) by the filament method under gas anesthesia over 2 hours. Thereafter, anesthesia was terminated and the mice were kept in an intensive care system (ThermoCare, Inc) at 32° C. for 4 to 6 hours. The neurological symptoms, the cerebral infarction size, and the cerebral infarction volume were used as endpoints.
The evaluation of the neurological symptoms was determined 22 hours after reperfusion based on the following four scores:
0: no neurological deficit (normal); 1: stretching of the opposite forefoot (mild); 2: contra lateral circling (moderate); and 3: loss of walking and righting reflex (severe).
Evaluations of the cerebral infarction size and the cerebral infarction volume were performed as follows. After the evaluation of the neurological symptoms, the mouse brains were removed immediately and cut into 6 coronary slices with a thickness of 2 mm. In order to discover the sites of infarction, the slices were stained with 2% triphenyltetrazolium chloride (TTC) in a darkroom for 15 minutes and then fixed in 10% formalin buffer overnight. The posterior surface of each brain slice was photographed and analyzed using a digital image analyzing system (NeuroLucida, MicroBrightfield Inc.) The cerebral infarction size and the cerebral infarction volume (%) were calculated by an indirect method.
In Experiment 1 to evaluate the therapeutic efficacy of fidarestat, fidarestat was administered to the mice at 2 mg/kg 15 minutes before reperfusion. In Experiment 2 to evaluate the protective effect of fidarestat, fidarestat was administered to the mice at 10 mg/kg 30 minutes before occlusion. Only solvent was administered to the control group. In each case, forced intragastric administration was carried out.

[3] = Experiment 1 (therapeutic efficacy): 2 mg/kg intragastric 15 minutes before reperfusion
[4] = Experiment 2 (protective effect): 10 mg/kg intragastric 30 minutes before occlusion

## NC(=O)[C@@H]1C[C@]2(NC(=O)NC2=O)c2cc(F)ccc2O1 [Fidarestat, (2S,4S)-6-fluoro-2′,5′-dioxospiro[chroman-4,4′-imidazolidine]-2-carboxamide]
[1]
  Pharmacological effect on the blood coagulation system and the circulatory system: no pharmacological effect
[2]; Experiment 1 (therapeutic efficacy): 2 mg/kg 15 minutes before reperfusion, FIG. 1, brain slice Nos. 3 and 4
  Cerebral infarction size observed after ischemic reperfusion: significantly reduced
[2]; Experiment 1 (therapeutic efficacy): 2 mg/kg 15 minutes before reperfusion, FIG. 4
  Cerebral infarction volume: the same result was also obtained
[2]; [3]
  (Dead) number of mice: (n = 2)
  Distribution of neurological scores: score 0 (number of mice): 0
  Distribution of neurological scores: score 1 (number of mice): 7
  Distribution of neurological scores: score 2 (number of mice): 2
  Distribution of neurological scores: score 3 (number of mice): 0
[2]; Experiment 1 (therapeutic efficacy): 2 mg/kg intragastric 15 minutes before reperfusion, P < 0.02 vs vehicle
  Neurological scores Mean ± SEM: 1.22 ± 0.15
[2]; Experiment 2 (protective effect): 10 mg/kg 30 minutes before occlusion, FIG. 2, brain slice Nos. 3 and 4
  Cerebral infarction size observed after ischemic reperfusion: significantly reduced
[2]; Experiment 2 (protective effect): 10 mg/kg 30 minutes before occlusion, FIG. 5
  Cerebral infarction volume: the same result was also obtained
[2]; [4]
  Distribution of neurological scores: score 0 (number of mice): 0
  Distribution of neurological scores: score 1 (number of mice): 7
  Distribution of neurological scores: score 2 (number of mice): 2
  Distribution of neurological scores: score 3 (number of mice): 0
[2]; Experiment 2 (protective effect): 10 mg/kg intragastric 30 minutes before occlusion, P < 0.05 vs vehicle
  Neurological scores Mean ± SEM: 1.22 ± 0.14
[2]; Experiments 1 and 2 (2 mg/kg 15 minutes before reperfusion; 10 mg/kg 30 minutes before occlusion)
  Effect on the worsening of the neurological symptoms observed after ischemic reperfusion: significant effect
